In ChEMBL document CHEMBL1149529 (Bioorg Med Chem Lett, 2007):

Experiment: Clearance in rat at 5 mg/kg, iv
Type: ADME, organism-based
Parameters: dose 5 mg/kg, route intravenous
Settings: in vivo

clearance [mL/min/kg] | SMILES
35 | Cc1c(CN(C)C[C@@H](O)c2ncccn2)sc2c(=O)c(C(=O)NCc3ccc(F)cc3)cn(C)c12
46.7 | CN(CC1=CC2C(=O)C(C(=O)NCc3ccc(Cl)cc3)=CN(C)C2S1)C[C@@H](O)c1ccccn1 (stereo partly specified)
23.3 | Cc1c(CN(C)C[C@@H](O)c2ccccn2)sc2c(=O)c(C(=O)NCc3ccc(Cl)cc3)cn(C)c12

Experiment: Oral bioavailability in rat at 15 mg/kg, po
Type: ADME, organism-based
Settings: in vivo

bioavailability [%] | SMILES
29 | Cc1c(CN(C)C[C@@H](O)c2ncccn2)sc2c(=O)c(C(=O)NCc3ccc(F)cc3)cn(C)c12
45 | CN(CC1=CC2C(=O)C(C(=O)NCc3ccc(Cl)cc3)=CN(C)C2S1)C[C@@H](O)c1ccccn1 (stereo partly specified)
30 | Cc1c(CN(C)C[C@@H](O)c2ccccn2)sc2c(=O)c(C(=O)NCc3ccc(Cl)cc3)cn(C)c12
